One experiment has as its system p38. Description: UV-induced p38 phosphorylation in HaCaT cells (Western blot). Format: cell-based, human. The note with it: 1 μg/mL, UV (FIG. 2c). As for the experimental part:
In order to identify the intracellular factors affecting COX-2 expression that are affected by homoisoflavanone, Western blotting was carried out in the same manner as in Example 2-1 except for treating with homoisoflavanone at 1 μg/mL, irradiating UV for 45 minutes and using rabbit anti-p-cytosolic phospholipase A2 (cPLA2) antibody, rabbit anti-cPLA2 antibody, rabbit anti-ERK antibody, rabbit anti-p-ERK antibody, rabbit anti-p38 antibody or rabbit anti-p-p38 antibody and using anti-rabbit IgG-HRP conjugation antibody (Zymed) as secondary antibody. Positive control groups were treated with 1 μM SB203580 (A.G. Scientific, Inc.) as p38 inhibitor or 10 μM PD98059 (A.G. Scientific, Inc.) as MEK 1 inhibitor instead of homoisoflavanone.
For orientation: Immunoblotting shows a protein as a band on a membrane.

In the next experiment the test system is IL-6. Description: UV-induced IL-6 mRNA expression in HaCaT cells (real-time PCR). Format: cell-based, human. To be noted: 1 μg/mL, UV 100 J/m^2, compared to control group (FIG. 3). How it is done:
(§1) 1×10^6 HaCaT cells were inoculated on a 100-mm culture dish and cultured in DMEM containing 10% FBS for 24 hour. Then, the cells were starved by culturing for 24 hours in DMEM containing 1% FBS. Then, after treating with homoisoflavanone at 1 μg/mL for 1 hour, the cells were washed 3 times with PBS and irradiated with UV at 100 J/m^2 to induce increase of cytokines. Immediately after the UV radiation, the cells were washed again with PBS and further cultured for 2 or 5 hours in DMEM containing 1% FBS which had been treated with homoisoflavanone at the same concentration.
(§2) After extracting RNA from the cells of each test group using TRIzol (Invitrogen, USA), cDNA was prepared by carrying out PCR (PTC-225 Peltier thermal cycler, MJ Research, USA). Then, the mRNA expression of IL-6, IL-8 and TNF-α was measured through real-time PCR (Roter Gene 6000 series, Corbett Research, Australia) using the cDNA as template and using commercially available IL-6, IL-8 and TNF-α primers. The expression level of the pro-inflammatory cytokines was compared relative to the non-treated group.
In general terms: In qPCR the cycle at which signal appears reflects the starting amount.

The next experiment concerns TNF-α. Description: UV-induced TNF-α mRNA expression in HaCaT cells (real-time PCR). The note with it: 1 μg/mL, UV 100 J/m^2, compared to control group (FIG. 3). Format: cell-based, human. As for the experimental part: as §1, §2
A further experiment concerns leukotriene B4. Description: Release of leukotriene B4 induced by PMA and A23187 in HMC-1 (enzyme immunoassay). Format: cell-based, human. The text has this: Phorbol 12-myristate 13-acetate and A23187 lead to degranulation of human mast cells (HMC), causing the mast cells to release not only their histamine or serotonin but also newly produced inflammatory factors such as pro-inflammatory cytokines, prostaglandins and leukotrienes. It was investigated whether homoisoflavanone has anti-inflammatory effect in mast cells as in Examples 4 and 5. In order to investigate the effect of homoisoflavanone on the release of leukotriene induced by phorbol 12-myristate 13-acetate and A23187 in HMC-1, 1×10^6 HMC-1 cells were inoculated on a 100-mm culture dish and cultured in Iscove's modified Dulbecco's medium (IMDM, GIBCO) containing 10% FBS for 48 hours. Then, after treating with homoisoflavanone at 2 μg/mL or with mizolastine at 10 μg/mL for comparison for 1 hour, the cells were treated with 50 nM phorbol 12-myristate 13-acetate and 1 μM A23187 to induce release of leukotriene, and then further cultured for 21 hours. Then, the supernatant was collected and the quantity of released leukotriene B4 and C4 was measured using a leukotriene B4, C4 enzyme immunoassay kit (Sapphire Bioscience, Australia).

The subject of the next experiment is IL-8. Description: IL-8 mRNA expression induced by PMA and A23187 in HMC-1 (real-time PCR). In kind it is cell-based, human. The note with it: HMC-1, 2 μg/mL, 50 nM PMA + 1 μM A23187, 5 hours (FIG. 6d). How it is done:
In order to investigate the effect of homoisoflavanone on the release of pro-inflammatory cytokines induced by phorbol 12-myristate 13-acetate and A23187 in HMC-1, 5×10^5 HMC-1 cells were inoculated on a 60-mm culture dish and cultured in IMDM containing 10% FBS for 48 hours. Then, after treating with homoisoflavanone at 2 μg/mL, the cells were treated with 50 nM phorbol 12-myristate 13-acetate and 1 μM A23187 to induce release of pro-inflammatory cytokines, and then further cultured for 5 hours.
After extracting RNA from the cells of each test group using TRIzol, cDNA was prepared by carrying out PCR using the RNA as a template. Then, the mRNA expression of IL-6 and IL-8 was measured through real-time PCR using the cDNA as template and using commercially available IL-6 and IL-8 primers. The expression level of the pro-inflammatory cytokines was compared relative to the non-treated group.

For another experiment, the system named is BALE/c mice. Description: Ear edema induced by UV radiation in animal model. Format: in vivo, mouse. The note with it: UV 7.5 kJ/m^2, 72 hours after UV (FIG. 10a). As for the experimental part:
BALE/c mice were subdivided into a non-treated group (treated with acetone only without UV radiation), a control group (irradiated with UV at 7.5 kJ/m^2) and a test group (treated with 0.6 or 1 μg/10 μL homoisoflavanone and irradiated with UV at 7.5 kJ/m^2). Then, the effect on ear edema induced by UV radiation was investigated.
One hour before irradiating UV at 7.5 kJ/m^2, 1 μg/10 μL homoisoflavanone was applied on the front and rear parts of the ear, 5 μL each. Then, 72 hours after UV radiation, ear thickness was measured.

For a further experiment, the system named is Hairless mice. Description: Ear edema transiently induced by croton oil in animal model. In kind it is in vivo, mouse. The note with it: 1 μg/10 μL topical 1 h before 1.6% croton oil, 6 hours after croton oil (FIG. 10b). How it is done:
Hairless mice were subdivided into a non-treated group (treated with acetone only, not with croton oil), a control group (treated with 1.6% croton oil) and a test group (treated with 1 μg/10 μL homoisoflavanone and 1.6% croton oil), and the effect on ear edema induced by croton oil was investigated.
One hour before treating with 1.6% croton oil, 1 μg/10 μL homoisoflavanone was applied on the front and rear parts of the ear, 5 μL each. Then, 6 hours after treating with croton oil, ear thickness was measured.

`COc1ccc(CC2COc3cc(O)cc(O)c3C2=O)cc1O` (stereo not drawn) [homoisoflavanone]: the “phosphorylation of p38” value in the experiment with p38 was “inhibited”. Also, in the experiment on IL-6, the “expression of IL-6 (mRNA) induced by UV” value is “decreased expression”. The “expression of TNF-α (mRNA) induced by UV” value in the experiment on TNF-α is on record as “decreased expression”. The “leukotriene B4 release when treated alone, versus non-treated group” value with leukotriene B4 (HMC-1, homoisoflavanone 2 μg/mL or mizolastine 10 μg/mL alone, without PMA/A23187 (FIG. 6a)) is on record as “no appreciable difference”. In addition, the “inhibition of release of leukotriene B4” value with leukotriene B4 (HMC-1, homoisoflavanone 2 μg/mL or mizolastine 10 μg/mL, 50 nM PMA + 1 μM A23187, 21 hours (FIG. 6a)) worked out at 70%. Moreover, in the experiment with IL-8, the “inhibition of release (mRNA expression) of IL-8” value is 50%. Also, the entries for the “decrease in ear thickness” value in the experiment with BALE/c mice (0.6 μg/ear topical), with BALE/c mice (1 μg/ear topical) and with Hairless mice were 44%, 52% and 63%, respectively.

The values above are taken from patent US20110207807A1, “NEW USE FOR HOMOISOFLAVONE OR A SALT THEREOF” (Catholic University Industry Academy Cooperation Foundation, priority 2008, published 2011).
